Literature values, collected in patent publication US20190048020A1, “DEUTERIUM-MODIFIED CFTR MODULATORS” (VERTEX PHARMACEUTICALS (EUROPE) LIMITED, priority 2016, published 2019).

Molecular target: T1, CFTR G5551D mutation (Homo sapiens, UniProt P13569, G551D)
T1 construct: phase II study in patients with the CFTR G5551D mutation; host or cells: patients (in vivo, sweat chloride read-out)
Conditions: phase II study, patients with the CFTR G5551D mutation

T1 sequence (P13569 whole entry G551D): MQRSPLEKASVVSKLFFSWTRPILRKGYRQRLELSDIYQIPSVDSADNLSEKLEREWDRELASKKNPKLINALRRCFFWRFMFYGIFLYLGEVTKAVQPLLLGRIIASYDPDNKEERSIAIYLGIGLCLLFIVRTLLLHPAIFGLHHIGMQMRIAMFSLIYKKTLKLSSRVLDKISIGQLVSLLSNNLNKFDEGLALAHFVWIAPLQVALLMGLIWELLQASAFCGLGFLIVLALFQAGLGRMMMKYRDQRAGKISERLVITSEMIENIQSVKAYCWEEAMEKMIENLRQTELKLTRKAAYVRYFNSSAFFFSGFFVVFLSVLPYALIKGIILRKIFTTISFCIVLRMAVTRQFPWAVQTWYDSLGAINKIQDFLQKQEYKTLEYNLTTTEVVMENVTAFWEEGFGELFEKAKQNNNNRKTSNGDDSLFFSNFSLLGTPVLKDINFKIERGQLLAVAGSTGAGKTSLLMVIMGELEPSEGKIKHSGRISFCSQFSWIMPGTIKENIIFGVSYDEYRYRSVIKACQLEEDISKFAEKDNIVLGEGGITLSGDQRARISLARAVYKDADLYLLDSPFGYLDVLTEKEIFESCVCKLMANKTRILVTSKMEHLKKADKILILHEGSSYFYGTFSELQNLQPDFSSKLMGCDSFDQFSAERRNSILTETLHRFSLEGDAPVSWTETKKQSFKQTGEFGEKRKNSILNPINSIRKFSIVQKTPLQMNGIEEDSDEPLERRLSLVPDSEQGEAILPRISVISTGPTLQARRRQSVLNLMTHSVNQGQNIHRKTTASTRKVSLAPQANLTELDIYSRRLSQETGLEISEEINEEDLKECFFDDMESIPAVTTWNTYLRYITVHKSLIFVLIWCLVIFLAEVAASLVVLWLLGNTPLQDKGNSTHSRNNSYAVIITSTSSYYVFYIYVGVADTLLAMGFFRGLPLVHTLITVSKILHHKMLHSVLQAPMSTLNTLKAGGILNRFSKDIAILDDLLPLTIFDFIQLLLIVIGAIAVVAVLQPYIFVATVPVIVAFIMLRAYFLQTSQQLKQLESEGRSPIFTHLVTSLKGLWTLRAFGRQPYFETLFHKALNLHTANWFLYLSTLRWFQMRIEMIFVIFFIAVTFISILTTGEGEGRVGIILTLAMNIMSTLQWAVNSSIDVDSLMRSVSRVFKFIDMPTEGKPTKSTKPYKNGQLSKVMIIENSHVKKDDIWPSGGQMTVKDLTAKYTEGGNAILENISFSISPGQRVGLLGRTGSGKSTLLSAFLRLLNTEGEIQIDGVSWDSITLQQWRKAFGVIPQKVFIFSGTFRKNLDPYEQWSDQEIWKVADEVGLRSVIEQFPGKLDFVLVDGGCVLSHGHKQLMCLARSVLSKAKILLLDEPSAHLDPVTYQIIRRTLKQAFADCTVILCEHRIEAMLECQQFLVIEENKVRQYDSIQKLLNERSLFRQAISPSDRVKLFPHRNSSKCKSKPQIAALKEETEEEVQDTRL

CC1(C)Cc2c(sc(NC(=O)c3ccn[nH]3)c2C(N)=O)C(C)(C)O1 [GLPG1837]
sweat chloride concentration: statistically significant dose-dependent decrease
